Test results: ChEMBL document CHEMBL1201862, “PubChem BioAssay data set” (2004)
Where a name gives a salt, the structure may show the parent alone.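 Protocol summary: plate cells (96-well), add compound at 5 concentrations, incubate 48 h, interpolate endpoints linearly. GI50 marks 50% less growth.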 The source made the active and inactive calls. Cut-off read from the data, not from the text of the source: active = GI50 up to about 1.1 µM and inactive = higher.

Key:
Test in all cases: DTP human tumour cell line panel, 48 h
[1] = test system: BT-549
[2] = test system: CAKI-1
[3] = test system: HOP-92
[4] = test system: HT-29
[5] = test system: Hs-578T
[6] = test system: IGROV-1
[7] = test system: K562
[8] = test system: MDA-N
[9] = test system: NCI-H226
[10] = test system: NCI-H23
[11] = test system: NCI-H460
[12] = test system: NCI-H522
[13] = test system: OVCAR-3
[14] = test system: PC-3
[15] = test system: SF-295
[16] = test system: SN12C
[17] = test system: TK-10
[18] = test system: UACC-62
[19] = test system: UO-31
[20] = test system: SF-539

Measured: GI50

CC(C)Cn1cnc2c(SCc3ccccn3)nc(N)nc21
inactive: [1] > 100 µM | [2] > 100 µM | [3] > 100 µM | [4] > 100 µM | [5] > 100 µM | [6] > 100 µM | [7] > 100 µM | [8] > 100 µM | [9] > 100 µM | [10] > 100 µM | [11] > 100 µM | [12] > 100 µM | [13] > 100 µM | [14] > 100 µM | [15] > 100 µM | [16] > 100 µM | [17] > 100 µM | [18] > 100 µM | [19] > 100 µM

Cc1cc(S(=O)(=O)Nc2cc(N)n[nH]2)c(SCc2nc(N)nc(N(C)C)n2)cc1Cl
inactive: [1] > 10 µM | [2] > 10 µM | [3] > 10 µM | [4] > 10 µM | [5] > 10 µM | [6] > 10 µM | [7] > 10 µM | [8] > 10 µM | [9] > 10 µM | [10] > 10 µM | [11] > 10 µM | [12] > 10 µM | [13] > 10 µM | [14] > 10 µM | [15] > 10 µM | [20] > 10 µM | [16] > 10 µM | [17] > 10 µM | [19] > 10 µM

O=C1/C(=C/c2cccc([N+](=O)[O-])c2)N=C(c2ccccc2)N1c1ccc2c(c1)Sc1cc(N3C(=O)/C(=C/c4cccc([N+](=O)[O-])c4)N=C3c3ccccc3)ccc1N2
inactive: [1] 23 µM | [2] 22.4 µM | [3] 28.1 µM | [4] 91.8 µM | [5] 30.2 µM | [6] 20.1 µM | [7] 27.3 µM | [8] 19.3 µM | [10] 30.8 µM | [11] 41.9 µM | [12] 19.1 µM | [13] 12.6 µM | [14] 22 µM | [15] 14 µM | [17] 19.6 µM | [18] 17 µM | [19] 53.3 µM

CC(=N\N=C\c1ccccn1)/C(C)=N/N=C(C)/C(C)=N/N=C/c1ccccn1
inactive: [1] > 100 µM | [2] > 100 µM | [3] > 100 µM | [4] > 100 µM | [5] > 100 µM | [6] > 100 µM | [8] > 100 µM | [9] > 100 µM | [10] > 100 µM | [11] > 100 µM | [12] > 100 µM | [13] > 100 µM | [14] > 100 µM | [15] > 100 µM | [20] > 100 µM | [16] > 100 µM | [17] > 100 µM | [19] > 100 µM

CN1[C@@H]2CC[C@H]1C[C@@H](OC(c1ccccc1)c1ccccc1)C2 [BENZTROPINE MESYLATE]
inactive: [1] 19.1 µM | [2] 23.6 µM | [3] 12.4 µM | [4] 11 µM | [5] 13.1 µM | [6] 17 µM | [7] 13.1 µM | [8] 15.1 µM | [9] 27.5 µM | [10] 27.3 µM | [12] 14.9 µM | [13] 15.9 µM | [14] 16.6 µM | [15] 11.4 µM | [16] 27.9 µM | [17] 17.3 µM | [18] 16.8 µM | [19] 15.3 µM

CC12CCC(=O)C=C1CCC1C2C(O)CC2(C)C(c3csc(N)n3)CCC12.O=S(=O)(O)c1ccc(Br)cc1 (centres undefined)
inactive: [1] > 100 µM | [2] > 100 µM | [3] > 100 µM | [4] > 100 µM | [5] > 100 µM | [6] > 100 µM | [7] > 100 µM | [8] > 100 µM | [9] > 100 µM | [10] > 100 µM | [12] > 100 µM | [13] > 100 µM | [14] > 100 µM | [15] > 100 µM | [20] > 100 µM | [16] > 100 µM | [17] > 100 µM | [18] > 100 µM | [19] > 100 µM

CC(=O)Oc1ccc2c3c1O[C@H]1[C@H](O)CC[C@@]4(O)[C@@H](C2)N(C)CC[C@]314
inactive: [1] > 100 µM | [2] > 100 µM | [3] > 100 µM | [4] > 100 µM | [5] > 100 µM | [6] > 100 µM | [8] > 100 µM | [9] > 100 µM | [10] > 100 µM | [12] > 100 µM | [13] > 100 µM | [14] > 100 µM | [15] > 100 µM | [20] > 100 µM | [16] > 100 µM | [17] > 100 µM | [18] > 100 µM | [19] > 100 µM

NCC(=O)Nc1ccc(S(=O)(=O)O)c2cc(S(=O)(=O)O)cc(S(=O)(=O)O)c12
inactive: [1] > 100 µM | [2] > 100 µM | [3] > 100 µM | [4] > 100 µM | [5] > 100 µM | [6] > 100 µM | [7] > 100 µM | [8] > 100 µM | [9] > 100 µM | [10] > 100 µM | [12] > 100 µM | [13] > 100 µM | [14] > 100 µM | [15] > 100 µM | [20] > 100 µM | [16] > 100 µM | [17] > 100 µM | [18] > 100 µM | [19] > 100 µM

C=C1CC(OC(C)=O)/C=C(/C)CCC(C(C)(C)O)CC1O (centres undefined)
inactive: [1] > 100 µM | [2] > 100 µM | [3] > 100 µM | [4] > 100 µM | [5] > 100 µM | [6] > 100 µM | [8] > 100 µM | [9] > 100 µM | [10] > 100 µM | [11] > 100 µM | [12] > 100 µM | [13] > 100 µM | [14] > 100 µM | [15] > 100 µM | [20] > 100 µM | [16] > 100 µM | [17] > 100 µM | [18] > 100 µM | [19] > 100 µM

Cc1ccc(S(=O)(=O)NC(=O)NC(CC(N)=O)C(=O)O)cc1 (centres undefined)
inactive: [1] > 100 µM | [3] > 100 µM | [4] > 100 µM | [5] > 100 µM | [6] > 100 µM | [7] > 100 µM | [8] > 100 µM | [10] > 100 µM | [11] > 100 µM | [12] > 100 µM | [14] > 100 µM | [15] > 100 µM | [20] > 100 µM | [16] > 100 µM | [17] > 100 µM | [18] > 100 µM | [19] > 100 µM

CCc1nnc(S)n1/N=C\c1ccc(-c2ccccc2[N+](=O)[O-])o1
inactive: [1] 28.8 µM | [2] 51.4 µM | [3] 49.3 µM | [4] 35.7 µM | [5] 37.4 µM | [6] 31.7 µM | [7] 27.9 µM | [8] 17.6 µM | [9] 12.1 µM | [10] 33.3 µM | [12] 31.6 µM | [13] 18.2 µM | [14] 41.5 µM | [15] 28.7 µM | [20] 29.8 µM | [16] 47.3 µM | [17] > 100 µM | [18] 37.6 µM | [19] 41.5 µM

CC(=N\N=C\c1ccccn1)/C(C)=N/N=C(C)/C(C)=N/N=C(C)/C(C)=N/N=C/c1ccccn1
inactive: [1] > 100 µM | [2] > 100 µM | [3] > 100 µM | [4] > 100 µM | [5] > 100 µM | [6] > 100 µM | [7] > 100 µM | [8] > 100 µM | [9] > 100 µM | [10] > 100 µM | [11] > 100 µM | [12] > 100 µM | [13] > 100 µM | [14] > 100 µM | [15] > 100 µM | [20] > 100 µM | [16] > 100 µM | [17] > 100 µM | [19] > 100 µM

Cc1c2cccc-2c(OCCOC(=O)n2ccnc2)cc2c1[nH]c1ccccc12
inactive: [1] 2.89 µM | [2] 3.66 µM | [3] 1.7 µM | [4] 2.27 µM | [5] 3.55 µM | [6] 1.77 µM | [7] 4.01 µM | [8] 4.8 µM | [9] 2.39 µM | [10] 2.44 µM | [11] 3.9 µM | [12] 2.14 µM | [13] 1.89 µM | [14] 1.75 µM | [15] 2.96 µM | [16] 2.58 µM | [17] 3.85 µM | [18] 2.62 µM | [19] 1.84 µM

CC(=O)O[C@@]12[C@@H]3O[C@@]4(O)C[C@]5(C)[C@H]6C[C@@](C(C)C)(O[C@H]5c5ccoc5)O[C@H]1[C@]6(C4)O[C@]2(O)C(C)=CC3(C)C
inactive: [1] > 100 µM | [2] > 100 µM | [3] > 100 µM | [4] > 100 µM | [5] > 100 µM | [6] > 100 µM | [7] > 100 µM | [8] > 100 µM | [9] > 100 µM | [10] > 100 µM | [12] 78.5 µM | [13] > 100 µM | [14] > 100 µM | [15] > 100 µM | [20] > 100 µM | [16] > 100 µM | [17] > 100 µM | [18] > 100 µM | [19] > 100 µM
